Assay results from patent publication US20240360151A1 (SANOFI, priority 2023, published 2024).

Legend:
NLRP3 inflammasome = biological target: T1, NLRP3 inflammasome (Homo sapiens, UniProt Q96P20); assay: IL-1β secretion assay (NLRP3 IC50) in LPS-primed, nigericin-activated THP-1 cells, HTRF; format: cell-based; details: monocytic THP-1 cells; LPS 10 ng/mL 3 h priming, then compound + nigericin 10 μM 2 h; relative IC50, 10 concentrations, geometric mean
T1 construct: endogenous in cells; host or cells: THP-1 monocytic cells
T1 sequence (Q96P20 whole entry): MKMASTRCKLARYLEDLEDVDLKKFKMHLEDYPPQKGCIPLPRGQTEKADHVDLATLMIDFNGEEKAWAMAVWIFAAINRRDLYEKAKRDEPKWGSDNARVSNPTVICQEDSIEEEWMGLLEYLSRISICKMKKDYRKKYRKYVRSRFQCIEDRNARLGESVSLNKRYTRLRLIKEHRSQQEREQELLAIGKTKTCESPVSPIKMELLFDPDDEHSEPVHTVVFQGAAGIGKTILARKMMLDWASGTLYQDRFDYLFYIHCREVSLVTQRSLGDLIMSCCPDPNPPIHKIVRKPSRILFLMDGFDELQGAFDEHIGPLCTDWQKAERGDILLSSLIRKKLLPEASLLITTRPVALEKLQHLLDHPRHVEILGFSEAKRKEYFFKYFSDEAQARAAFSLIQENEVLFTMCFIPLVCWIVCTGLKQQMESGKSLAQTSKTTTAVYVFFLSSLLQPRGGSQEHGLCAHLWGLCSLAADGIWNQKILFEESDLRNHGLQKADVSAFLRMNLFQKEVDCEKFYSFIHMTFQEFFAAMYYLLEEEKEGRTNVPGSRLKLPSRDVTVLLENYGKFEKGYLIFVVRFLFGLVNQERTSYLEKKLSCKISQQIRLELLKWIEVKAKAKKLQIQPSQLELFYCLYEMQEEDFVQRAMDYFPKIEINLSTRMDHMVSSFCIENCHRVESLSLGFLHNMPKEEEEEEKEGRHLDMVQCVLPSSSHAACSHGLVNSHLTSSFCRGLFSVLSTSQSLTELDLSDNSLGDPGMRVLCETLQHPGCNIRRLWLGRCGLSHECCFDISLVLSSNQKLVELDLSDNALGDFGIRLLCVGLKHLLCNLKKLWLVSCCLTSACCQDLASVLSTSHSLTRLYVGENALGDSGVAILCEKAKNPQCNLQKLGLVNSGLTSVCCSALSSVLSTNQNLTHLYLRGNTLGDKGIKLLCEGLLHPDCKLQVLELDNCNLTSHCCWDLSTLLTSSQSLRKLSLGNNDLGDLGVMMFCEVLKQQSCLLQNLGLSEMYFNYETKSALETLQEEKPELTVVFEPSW
In short: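 THP-1 cells primed with LPS 10 ng/mL for 3 h at 37° C., then compound (10-point 1:3 dilution, 0.1% DMSO) added with 10 μM nigericin for 2 h. Supernatant IL-1β measured by HTRF; relative IC50 from a 4-parameter logistic fit, reported as geometric mean.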

[1] = test system: NF-kB pathway (TNF-α secretion by THP-1 cells); assay: TNF-α secretion assay in LPS-stimulated THP-1 cells, Lumit immunoassay; format: cell-based, human; details: Homo sapiens, THP-1, 3 h, monocytic THP-1 cells, LPS 10 ng/mL, relative IC50, 10 concentrations, geometric mean
In short: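 THP-1 monocytes in RPMI with 5% FBS were treated with compound, then stimulated with 10 ng/mL LPS for 3 h. Secreted TNF-α was measured in-plate by Lumit immunoassay. Relative IC50 came from 10-concentration curves fitted with a 4-parameter logistic model, reported as geometric mean.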

| SMILES | IC50 (NLRP3 inflammasome) | IC50 [1] |
| --- | --- | --- |
| Cc1cc(C(F)(F)F)cc(O)c1-c1ccc(N2C[C@@H](CO)O[C@@H](C)C2)nn1 [Example 297, 2-[6-[(2S,6S)-2-(hydroxymethyl)-6-methyl-morpholin-4-yl]pyridazin-3-yl]-3-methyl-5-(trifluoromethyl)phenol] | 11 nM | > 10 µM |
| CN1CC[C@H]2OCCN(c3cc(C(F)F)c(-c4ccc(C(F)(F)F)cc4O)nn3)[C@H]2C1 [Example 298, 2-[6-[(4aS,8aR)-6-methyl-3,4a,5,7,8,8a-hexahydro-2H-pyrido[4,3-b][1,4]oxazin-4-yl]-4-(difluoromethyl)pyridazin-3-yl]-5-(trifluoromethyl)phenol] | 3 nM | > 10 µM |
| Cc1cccc(O)c1-c1ccc(N2CCO[C@H]3CCN(C)C[C@H]32)nn1 [Example 299, 2-[6-[(4aR,8aS)-6-methyl-3,4a,5,7,8,8a-hexahydro-2H-pyrido[4,3-b][1,4]oxazin-4-yl]pyridazin-3-yl]-3-methyl-phenol] | 15 nM | > 10 µM |
| Cc1cc(C(F)(F)F)cc(O)c1-c1ccc(N2C[C@H](CO)O[C@H](C)C2)nn1 [Example 302, 2-[6-[(2R,6R)-2-(hydroxymethyl)-6-methyl-morpholin-4-yl]pyridazin-3-yl]-3-methyl-5-(trifluoromethyl)phenol] | 13 nM | > 10 µM |
| Cc1cc(Cl)cc(O)c1-c1ccc(N2CCO[C@H]3CCNC[C@H]32)nn1 [Example 308, 2-[6-[(4aR,8aS)-2,3,4a,5,6,7,8,8a-octahydropyrido[4,3-b][1,4]oxazin-4-yl]pyridazin-3-yl]-5-chloro-3-methyl-phenol] | 9 nM | > 10 µM |
| Cc1cc(C)c(-c2ccc(N3CCO[C@@H]4CCN(C)C[C@@H]43)nn2)c(O)c1 [Example 311, 2-[6-[(4aS,8aR)-6-methyl-3,4a,5,7,8,8a-hexahydro-2H-pyrido[4,3-b][1,4]oxazin-4-yl]pyridazin-3-yl]-3,5-dimethyl-phenol] | 2 nM | > 10 µM |
| Cc1cc(C)c(-c2ccc(N3CCO[C@H]4CCNC[C@H]43)nn2)c(O)c1 [Example 314, 2-[6-[(4aR,8aS)-2,3,4a,5,6,7,8,8a-octahydropyrido[4,3-b][1,4]oxazin-4-yl]pyridazin-3-yl]-3,5-dimethyl-phenol] | 18 nM | > 10 µM |
| Cc1ccc(-c2nnc(N3CCO[C@@H]4CCNC[C@@H]43)cc2C(F)F)c(O)c1 [Example 322, 2-[6-[(4aS,8aR)-2,3,4a,5,6,7,8,8a-octahydropyrido[4,3-b][1,4]oxazin-4-yl]-4-(difluoromethyl)pyridazin-3-yl]-5-methyl-phenol] | 80 nM | > 10 µM |
| CCN1CC[C@H]2OCCN(c3cc(C(F)F)c(-c4ccc(C)cc4O)nn3)[C@H]2C1 [Example 323, 2-[6-[(4aS,8aR)-6-ethyl-3,4a,5,7,8,8a-hexahydro-2H-pyrido[4,3-b][1,4]oxazin-4-yl]-4-(difluoromethyl)pyridazin-3-yl]-5-methyl-phenol] | 3 nM | > 10 µM |
| Cc1cc(N2CCO[C@H](CO)C2)nnc1-c1ccc2c(c1O)CCC2 [Example 324, 5-[6-[(2S)-2-(hydroxymethyl)morpholin-4-yl]-4-methyl-pyridazin-3-yl]indan-4-ol] | 56 nM | > 10 µM |
| Cc1cc(Cl)cc(O)c1-c1ccc(N2CCO[C@@H](CF)C2)nn1 [Example 338, 5-chloro-2-[6-[(2R)-2-(fluoromethyl)morpholin-4-yl]pyridazin-3-yl]-3-methyl-phenol] | 46 nM | > 10 µM |
| CN1CC[C@H]2OCCN(c3cc(C(F)F)c(-c4ccc(Cl)cc4O)nn3)[C@H]2C1 [Example 350, 2-[6-[(4aS,8aR)-6-methyl-3,4a,5,7,8,8a-hexahydro-2H-pyrido[4,3-b][1,4]oxazin-4-yl]-4-(difluoromethyl)pyridazin-3-yl]-5-chloro-phenol] | 1 nM | > 10 µM |
| Cc1ccc(F)c(O)c1-c1ccc(N2CCO[C@@H]3CCN(C)C[C@@H]32)nn1 [Example 353, 2-[6-[(4aS,8aR)-6-methyl-3,4a,5,7,8,8a-hexahydro-2H-pyrido[4,3-b][1,4]oxazin-4-yl]pyridazin-3-yl]-6-fluoro-3-methyl-phenol] | 29 nM | > 10 µM |
| Cc1cccc(O)c1-c1ccc(N2CCO[C@@H]3CCN(C)C[C@@H]32)nn1 [Example 354, 2-[6-[(4aS,8aR)-6-methyl-3,4a,5,7,8,8a-hexahydro-2H-pyrido[4,3-b][1,4]oxazin-4-yl]pyridazin-3-yl]-3-methyl-phenol] | 20 nM | > 10 µM |
| Cc1cc(N2CCO[C@@H]3CCN(C)C[C@@H]32)nnc1-c1cccc(F)c1O [Example 356, 2-[6-[(4aS,8aR)-6-methyl-3,4a,5,7,8,8a-hexahydro-2H-pyrido[4,3-b][1,4]oxazin-4-yl]-4-methyl-pyridazin-3-yl]-6-fluoro-phenol] | 61 nM | > 10 µM |
| CC(=O)N1CC[C@H]2OCCN(c3cc(C)c(-c4ccc(Cl)cc4O)nn3)[C@H]2C1 [Example 357, 1-[(4aS,8aR)-4-[6-(4-chloro-2-hydroxy-phenyl)-5-methyl-pyridazin-3-yl]-3,4a,5,7,8,8a-hexahydro-2H-pyrido[4,3-b][1,4]oxazin-6-yl]ethanone] | 48 nM | > 10 µM |
| CCc1cccc(O)c1-c1ccc(N2CCO[C@@H]3CCN(C)C[C@@H]32)nn1 [Example 358, 2-[6-[(4aS,8aR)-6-methyl-3,4a,5,7,8,8a-hexahydro-2H-pyrido[4,3-b][1,4]oxazin-4-yl]pyridazin-3-yl]-3-ethyl-phenol] | 11 nM | > 10 µM |
| Cc1cc(C)c(-c2ccc(N3C[C@@H](CO)O[C@H](C)C3)nn2)c(O)c1 [Example 359, 2-[6-[(2S,6R)-2-(hydroxymethyl)-6-methyl-morpholin-4-yl]pyridazin-3-yl]-3,5-dimethyl-phenol] | 98 nM | > 10 µM |
| CC(=O)N1CC[C@H]2OCCN(c3cc(C)c(-c4ccc(C(F)(F)F)cc4O)nn3)[C@H]2C1 [Example 363, 1-[(4aS,8aR)-4-[6-[2-hydroxy-4-(trifluoromethyl)phenyl]-5-methyl-pyridazin-3-yl]-3,4a,5,7,8,8a-hexahydro-2H-pyrido[4,3-b][1,4]oxazin-6-yl]ethanone] | 16 nM | > 10 µM |
| Cc1cc(C)c(-c2ccc(N3C[C@H](CO)O[C@H](C)C3)nn2)c(O)c1 [Example 365, 2-[6-[(2R,6R)-2-(hydroxymethyl)-6-methyl-morpholin-4-yl]pyridazin-3-yl]-3,5-dimethyl-phenol] | 28 nM | > 10 µM |
| Cc1cc(C(F)(F)F)cc(O)c1-c1nnc(N2C[C@@H](O)CC2=O)cc1C(F)F [Example 372, (4S)-1-[5-(difluoromethyl)-6-[2-hydroxy-6-methyl-4-(trifluoromethyl)phenyl]pyridazin-3-yl]-4-hydroxy-pyrrolidin-2-one] | 94 nM | > 10 µM |
| Cc1ccc(-c2nnc(N3CCO[C@@H]4CCN(C)C[C@@H]43)cc2C)c(O)c1 [Example 373, 2-[6-[(4aS,8aR)-6-methyl-3,4a,5,7,8,8a-hexahydro-2H-pyrido[4,3-b][1,4]oxazin-4-yl]-4-methyl-pyridazin-3-yl]-5-methyl-phenol] | 1.1 nM | > 10 µM |
| Cc1cc(N2CCO[C@@H]3CCN(C)C[C@@H]32)nnc1-c1ccc(Cl)cc1O [Example 379, 2-[6-[(4aS,8aR)-6-methyl-3,4a,5,7,8,8a-hexahydro-2H-pyrido[4,3-b][1,4]oxazin-4-yl]-4-methyl-pyridazin-3-yl]-5-chloro-phenol] | 1 nM | > 10 µM |
| CCc1cc(C(F)(F)F)cc(O)c1-c1ccc(N2CCO[C@@H]3CCN(C(C)=O)C[C@@H]32)nn1 [Example 380, 1-[(4aS,8aR)-4-[6-[2-ethyl-6-hydroxy-4-(trifluoromethyl)phenyl]pyridazin-3-yl]-3,4a,5,7,8,8a-hexahydro-2H-pyrido[4,3-b][1,4]oxazin-6-yl]ethanone] | 4 nM | > 10 µM |
| CCc1cc(Cl)cc(O)c1-c1ccc(N2CCO[C@@H]3CCN(C(C)=O)C[C@@H]32)nn1 [Example 381, 1-[(4aS,8aR)-4-[6-(4-chloro-2-ethyl-6-hydroxy-phenyl)pyridazin-3-yl]-3,4a,5,7,8,8a-hexahydro-2H-pyrido[4,3-b][1,4]oxazin-6-yl]ethanone] | 3 nM | > 10 µM |
| Oc1cc(C(F)(F)F)ccc1-c1nnc(N2CCO[C@@H]3CCNC[C@@H]32)cc1C(F)F [Example 382, 2-[6-[(4aS,8aR)-2,3,4a,5,6,7,8,8a-octahydropyrido[4,3-b][1,4]oxazin-4-yl]-4-(difluoromethyl)pyridazin-3-yl]-5-(trifluoromethyl)phenol] | 12 nM | > 10 µM |
| CC(=O)N1CC[C@H]2OCCN(c3cc(C(F)F)c(-c4ccc(C(F)(F)F)cc4O)nn3)[C@H]2C1 [Example 386, 1-[(4aS,8aR)-4-[5-(difluoromethyl)-6-[2-hydroxy-4-(trifluoromethyl)phenyl]pyridazin-3-yl]-3,4a,5,7,8,8a-hexahydro-2H-pyrido[4,3-b][1,4]oxazin-6-yl]ethanone] | 19 nM | > 10 µM |
| CC(=O)N1CC[C@H]2OCCN(c3cc(C(F)F)c(-c4ccc(C)cc4O)nn3)[C@H]2C1 [Example 387, 1-[(4aS,8aR)-4-[5-(difluoromethyl)-6-(2-hydroxy-4-methyl-phenyl)pyridazin-3-yl]-3,4a,5,7,8,8a-hexahydro-2H-pyrido[4,3-b][1,4]oxazin-6-yl]ethanone] | 31 nM | > 10 µM |
